Reference: patent US20060222628A1, “Gallium complexes of 3-hydroxy-4-pyrones to treat infection by intracellular prokaryotes and DNA viruses” (priority 1999, published 2006)
Values belong to the compound of their own block, whether it stands above or below them.

Assays:
[1] = tested on: reverse transcriptase in Rauscher murine leukemia virus; settings: in vitro; cited from earlier work
[2] = in vivo, po; cited from earlier work
[3] = format: physicochemical
Procedure: The material forms white to pale beige monoclinic crystals with unit cell parameters of about a=7.899(1)Å, b=8.765(1)Å, c=31.626(2)Å, beta=103.253(7) degrees, V=2131 Å^3, based on powder x-ray diffraction analysis. The solubility of this compound is measured as about 5 millimolar in distilled deionized water at 23° C. Crystallization from other solvents or under other conditions may produce other crystal structures. Under some conditions, water or other solvents may also be incorporated into the structure. […] About 5.5 grams of powdered anhydrous sodium carbonate are added, and stirring continues for additional 12 minutes. […] The remaining crystalline solid is the 3:1 maltol gallium composition. […] The solubility of this composition is measured as about 24 millimolar in distilled deionized water at 23° C.

HIV-1 = settings: at subinhibitory concentrations; cited from earlier work

Compound: [Ga] [Gallium]
Inhibition of reverse transcriptase [1]: shown in vitro to inhibit the enzyme reverse transcriptase

Compound: CCc1occc(=O)c1O [ethyl maltol, 3-hydroxy-2-ethyl-4-pyrone]
Toxicity when taken orally [2]: very low toxicities

Solubility [3]: about 5 millimolar
Compound: CCc1occc(=O)c1[O-].CCc1occc(=O)c1[O-].CCc1occc(=O)c1[O-].[Ga+3] [gallium ethyl maltolate, tris(3-hydroxy-2-ethyl-4H-pyran-4-onato)gallium]

Compound: O=[N+]([O-])[O-].O=[N+]([O-])[O-].O=[N+]([O-])[O-].[Ga+3] [gallium nitrate]
Effect on inhibitory effects of nucleoside analogs (HIV-1): potentiated the inhibitory effects of zidovudine, azidothymidine (AZT), dideoxy inosine (ddI), and dideoxy cytosine (ddC)

Compound: Cc1occc(=O)c1O [maltol, 3-hydroxy-2-methyl-4-pyrone]
Toxicity when taken orally [2]: very low toxicities
